Assay results from patent US9522920B2, “Bromodomain inhibitors and uses thereof” (Constellation Pharmaceuticals, Inc., priority 2010, dated 2016).
Like-named read-outs stand apart in the source and are kept apart here.

Key:
BRD4(BD1) = biological target: T1, BRD4(BD1) (Homo sapiens, UniProt O60885); assay: BRD4 AlphaLisa binding assay (Alphascreen)
T1 construct: His; made in house
Description: Specifically, in a 384 well ProxiPlate BRD4(BD1) (30 nM final) was combined with peptide (200 nM final) in 40 mM HEPES (pH 7.0), 40 mM NaCl, 1 mM DTT, 0.01% (w/v) BSA, and 0.008% (w/v) Brij-35 either in the presence of DMSO (final 1.2% DMSO) or compound dilution series in DMSO. After 20 minute incubation at room temperature Alpha streptavidin donor beads and AlphaLisa anti-Flag acceptor beads were added to a final concentration of 10 ug/mL each. After three hours equilibration plates were read on an Envision instrument and IC50s calculated using a four parameter non-linear curve fit.

IL-6 secretion = assay: Cell-based IL-6 quantification assay (ELISA, Mesoscale) in LPS-stimulated THP-1 cells; conditions: read-out: IL6
Description: 100,000 THP-1 cells were seeded in RPMI1640-10% FBS in 96-well plates. LPS (E. Coli Invitrogen) in RPMI-10% FBS at a final concentration of 4 μg/mL was added to the wells and the cells are then incubated in the presence of various concentrations of compounds for 16 h. Plates are spun ([…], 5 min), an aliquot of 25 uL supernatant is transferred in to an ELISA plate (Mesoscale technology, MSD) and the detection of IL-6 is performed using manufacturer's instructions. The amount of cells in each well is assessed using CellTiter-Glo® (Promega). The ratio of ELISA value/CellTiter-Glo value is used to calculate the percent of inhibition of IL-6 secretion.

MYC mRNA [1] = assay: cMyc RNA quantification assay (QuantiGene) in MV4:11 cells; type: cell-based; conditions: read-out: MYC-MV411
Description: (§1) MV4:11 (AML) or Raji (Burkitt's lymphoma) cells were seeded in a 96-well plate and incubated in the presence of various concentrations of compounds for 4 h. Relative mRNA levels were quantitated by using QuantiGene 2.0 assay (Affymetrix) according to the manufacturer's recommendation. Signals were detected by using an Envision plate reader (Perkin-Elmer). Biological duplicates were averaged and normalized to vehicle (DMSO) control to calculate percent MYC mRNA levels.

MYC mRNA [2] = assay: cMyc RNA quantification assay (QuantiGene) in Raji cells; type: cell-based; conditions: Homo sapiens, 4 h
Description: as §1

[3] = Table 14, BRD4 AlphaLisa Binding Assay, read-out: Alpha screen
[4] = Homo sapiens, THP-1, 16 h, Table 14, THP-1 cells, LPS, 16 h
[5] = Homo sapiens, MV4-11, 4 h, Table 14, MV4:11 cells
[6] = Table 6, BRD4(BD1) 30 nM, H4-tetraacetyl peptide 200 nM, read-out: BRD4 Alphascreen IC50
[7] = Homo sapiens, THP-1, 16 h, Table 7, THP-1 cells, LPS 4 μg/mL, 16 h, normalised to CellTiter-Glo
[8] = Table 7, Raji (Burkitt's lymphoma) cells

| Structure (SMILES) | IC50 (BRD4(BD1); [3]) | IC50 (IL-6 secretion; [4]) | IC50 (MYC mRNA [1]; [5]) | also measured |
| --- | --- | --- | --- | --- |
| Cc1noc2c1-c1ccccc1C(c1ccc(Cl)cc1)=N[C@H]2CC(N)C(F)(F)F (mixture of isomers) [Compound 232, Mixture of (2S)-3-((4S)-6-(4-chlorophenyl)-1-methyl-4H-benzo[c]isoxazolo[4,5-e]azepin-4-yl)-1,1,1-trifluoropropan-2-amine and (2R)-3-((4S)-6-(4-chlorophenyl)-1-methyl-4H-benzo[c]isoxazolo[4,5-e]azepin-4-yl)-1,1,1-trifluoropropan-2-amine] | > 1000 nM | > 1000 nM | > 1000 nM | – |
| CC(=O)NC(C[C@@H]1N=C(c2ccc(Cl)cc2)c2ccccc2-c2c(C)noc21)C(F)(F)F (mixture of isomers) [Compound 244, Mixture of N-((2S)-3-((4S)-6-(4-chlorophenyl)-1-methyl-4H-benzo[c]isoxazolo[4,5-e]azepin-4-yl)-1,1,1-trifluoropropan-2-yl)acetamide and N-((2R)-3-((4S)-6-(4-chlorophenyl)-1-methyl-4H-benzo[c]isoxazolo[4,5-e]azepin-4-yl)-1,1,1-trifluoropropan-2-yl)acetamide] | > 1000 nM | > 1000 nM | > 1000 nM | – |
| CCOC(=O)NC1N=C(c2ccc(Cl)cc2)c2ccccc2-c2c(C)noc21 (single isomer, unassigned) [Compound 253, Ethyl (6-(4-chlorophenyl)-1-methyl-4H-benzo[c]isoxazolo[4,5-e]azepin-4-yl)carbamate] | < 500 nM | < 500 nM | < 500 nM | – |
| CCOC(=O)NC1N=C(c2ccc(Cl)cc2)c2ccccc2-c2c(C)noc21 (single isomer, unassigned) [Compound 254, Ethyl (6-(4-chlorophenyl)-1-methyl-4H-benzo[c]isoxazolo[4,5-e]azepin-4-yl)carbamate] | 500 to 1000 nM | – | – | IC50 (IL-6 secretion; Table 14, THP-1 cells, LPS, 16 h): > 1000 nM; IC50 (MYC mRNA [1]; Table 14, MV4:11 cells, 4 h): > 1000 nM |
| CNc1nccc2c1C(c1ccc(Cl)cc1)=NCc1onc(C)c1-2 [Compound 173, 6-(4-Chlorophenyl)-N,1-dimethyl-4H-isoxazolo[5,4-c]pyrido[4,3-e]azepin-7-amine] | – | – | – | IC50 (BRD4(BD1); [6]): < 500 nM; IC50 (IL-6 secretion; [7]): < 500 nM; IC50 (MYC mRNA [2]; [8]): < 500 nM |
| CCNc1nccc2c1C(c1ccc(Cl)cc1)=NCc1onc(C)c1-2 [Compound 174, 6-(4-Chlorophenyl)-N-ethyl-1-methyl-4H-isoxazolo[5,4-c]pyrido[4,3-e]azepin-7-amine] | – | – | – | IC50 (BRD4(BD1); [6]): < 500 nM; IC50 (IL-6 secretion; [7]): < 500 nM; IC50 (MYC mRNA [2]; [8]): 500 to 1000 nM |
| Cc1noc2c1-c1ccnc(N(C)C)c1C(c1ccc(Cl)cc1)=NC2 [Compound 175, 6-(4-Chlorophenyl)-N,N,1-trimethyl-4H-isoxazolo[5,4-c]pyrido[4,3-e]azepin-7-amine] | – | – | – | IC50 (BRD4(BD1); [6]): < 500 nM; IC50 (IL-6 secretion; [7]): 500 to 1000 nM; IC50 (MYC mRNA [2]; [8]): > 1000 nM |
| Cc1noc2c1-c1sc(C)c(C)c1C(Oc1ccccc1)=N[C@H]2CC(N)=O [Compound 186, 2-((6S)-2,3,9-trimethyl-4-phenoxy-6H-isoxazolo[5,4-c]thieno[2,3-e]azepin-6-yl)acetamide] | – | – | – | IC50 (BRD4(BD1); [6]): 500 to 1000 nM; IC50 (IL-6 secretion; Homo sapiens, THP-1, 16 h): 500 to 1000 nM; IC50 (MYC mRNA [2]; [8]): > 1000 nM |
| Cc1noc2c1-c1sc(C)c(C)c1C(c1ccc(Cl)cc1)=N[C@H]2Cc1ncc[nH]1 [Compound 187, (6S)-6-((1H-imidazol-2-yl)methyl)-4-(4-chlorophenyl)-2,3,9-trimethyl-6H-isoxazolo[5,4-c]thieno[2,3-e]azepine] | – | – | – | IC50 (BRD4(BD1); [6]): < 500 nM; IC50 (IL-6 secretion; Homo sapiens, THP-1, 16 h): > 1000 nM; IC50 (MYC mRNA [2]; [8]): > 1000 nM |
| Cc1noc2c1-c1sc(C)c(C)c1C(c1ccc(Cl)cc1)=N[C@H]2Cc1nccs1 [Compound 188, (6S)-4-(4-chlorophenyl)-2,3,9-trimethyl-6-(thiazol-2-ylmethyl)-6H-isoxazolo[5,4-c]thieno[2,3-e]azepine] | – | – | – | IC50 (BRD4(BD1); [6]): < 500 nM; IC50 (IL-6 secretion; [7]): < 500 nM; IC50 (MYC mRNA [2]; [8]): > 1000 nM |
| Cc1noc2c1-c1ccccc1C(c1ccc(F)cn1)=N[C@H]2CC(N)=O [Compound 196] | > 1000 nM | 500 to 1000 nM | – | IC50 (MYC mRNA [2]; Table 14, Raji cells): > 1000 nM |
| Cc1noc2c1-c1ccc(OC(F)(F)F)cc1C(c1ccc(Cl)cc1)=N[C@H]2CC(N)=O [Compound 197] | < 500 nM | < 500 nM | – | IC50 (MYC mRNA [2]; Table 14, Raji cells): < 500 nM |
| Cc1noc2c1-c1sc(C)c(C)c1C(c1cscn1)=N[C@H]2CC(N)=O [Compound 198] | < 500 nM | < 500 nM | – | IC50 (MYC mRNA [2]; Table 14, Raji cells): 500 to 1000 nM |
| Cc1noc2c1-c1ccccc1C(c1ccc(Cl)cc1)=N[C@H]2CC(=O)NCCF [Compound 199] | < 500 nM | < 500 nM | – | IC50 (MYC mRNA [2]; Table 14, Raji cells): < 500 nM |
| Cc1noc2c1-c1ccc(Cl)cc1C(c1ccc(C(F)(F)F)cc1)=N[C@H]2CC(=O)O [Compound 200] | > 1000 nM | > 1000 nM | – | IC50 (MYC mRNA [2]; Table 14, Raji cells): > 1000 nM |
| Cc1noc2c1-c1ccc(Cl)cc1C(c1ccc(C(F)(F)F)cc1)=N[C@H]2CC(N)=O [Compound 201] | < 500 nM | < 500 nM | – | IC50 (MYC mRNA [2]; Table 14, Raji cells): 500 to 1000 nM |
| Cc1noc2c1-c1ccccc1C(c1ccc(Cl)cc1)=N[C@H]2CC(=O)NC(C)(C)C [Compound 205] | < 500 nM | < 500 nM | – | IC50 (MYC mRNA [2]; Table 14, Raji cells): > 1000 nM |
| Cc1noc2c1-c1ccc(Cl)cc1C(c1ccc(F)cc1)=N[C@H]2CC(N)=O [Compound 211] | < 500 nM | < 500 nM | 500 to 1000 nM | – |
| Cc1noc2c1-c1ccc(F)cc1C(c1ccc(C#N)cc1)=N[C@H]2CC(N)=O [Compound 212] | < 500 nM | < 500 nM | < 500 nM | – |
| Cc1noc2c1-c1ccc(-c3ccc(N)nc3)cc1C(c1ccc(Cl)cc1)=N[C@H]2CC(N)=O [Compound 213] | < 500 nM | < 500 nM | < 500 nM | – |
| Cc1noc2c1-c1ccccc1C(c1ccc(Cl)cc1)=N[C@H]2CC(=O)NCCO [Compound 214] | < 500 nM | < 500 nM | < 500 nM | – |
| Cc1noc2c1-c1ccccc1C(c1ccc(Cl)cc1)=NC2C#N (stereo not shown) [Compound 215, 6-(4-chlorophenyl)-1-methyl-4H-benzo[c]isoxazolo[4,5-e]azepine-4-carbonitrile] | > 1000 nM | > 1000 nM | > 1000 nM | – |
| Cc1noc2c1-c1ccc(-c3ccc(N)nc3)cc1C(c1ccc(F)cc1)=N[C@H]2CC(N)=O [Compound 216] | < 500 nM | < 500 nM | < 500 nM | – |
| COc1ccc2c(c1)C(c1ccc(Cl)cc1)=N[C@@H](CC(N)=O)c1onc(C)c1-2 [Compound 217, 2-((4S)-6-(4-chlorophenyl)-8-methoxy-1-methyl-4H-benzo[c]isoxazolo[4,5-e]azepin-4-yl)acetamide] | < 500 nM | < 500 nM | < 500 nM | – |
| Cc1noc2c1-c1ccccc1C(c1ccc(Cl)cc1)=NC2C(N)=O (stereo not shown) [Compound 218, 6-(4-chlorophenyl)-1-methyl-4H-benzo[c]isoxazolo[4,5-e]azepine-4-carboxamide] | > 1000 nM | > 1000 nM | > 1000 nM | – |
| COc1ccc2c(n1)-c1c(C)noc1CN=C2c1ccc(Cl)cc1 [Compound 219, 5-(4-Chlorophenyl)-2-methoxy-10-methyl-7H-isoxazolo[5,4-c]pyrido[2,3-e]azepine] | > 1000 nM | > 1000 nM | 500 to 1000 nM | – |
| Cc1noc2c1-c1[nH]c(=O)ccc1C(c1ccc(Cl)cc1)=NC2 [Compound 220, 5-(4-Chlorophenyl)-10-methyl-1H-isoxazolo[5,4-c]pyrido[2,3-e]azepin-2(7H)-one] | > 1000 nM | > 1000 nM | > 1000 nM | – |
| CNc1ccc2c(n1)-c1c(C)noc1CN=C2c1ccc(Cl)cc1 [Compound 221, 5-(4-Chlorophenyl)-N,10-dimethyl-7H-isoxazolo[5,4-c]pyrido[2,3-e]azepin-2-amine] | > 1000 nM | > 1000 nM | > 1000 nM | – |
| Cc1noc2c1-c1ccc(Cl)cc1C(c1ccc(F)cc1)=NC21CC1 [Compound 250, 8-Chloro-6-(4-fluorophenyl)-1-methylspiro[benzo[c]isoxazolo[4,5-e]azepine-4,1′-cyclopropane]] | – | > 1000 nM | > 1000 nM | – |
| Cc1noc2c1-c1ccc(-c3ccc(N)nc3)cc1C(c1ccc(F)cc1)=NC21CC1 [Compound 251, 5-(6-(4-Fluorophenyl)-1-methylspiro[benzo[c]isoxazolo[4,5-e]azepine-4,1′-cyclopropan]-8-yl)pyridin-2-amine] | – | < 500 nM | < 500 nM | – |
